Patent US8399465B2, “Compounds with two fused bicyclic heteroaryl moieties as modulators of leukotriene A4 hydrolase” (Janssen Pharmaceutica NV, priority 2009, dated 2013)
Where a name gives a salt, the structure may show the parent alone.

The molecules below were run against T1, recombinant human LTA4 hydrolase (rhLTA4H) (Homo sapiens, UniProt P09960) (assay: Recombinant human LTA4 hydrolase assay for LTA4 hydrolase inhibitor activity). Conditions: rhLTA4H, LTB4 by immunoassay; single determination or average of two or more; mark after value = form tested: ′ free base, ″ hydrochloride, ^ formate; read-out: IC50.
T1 construct: made in house; host or cells: Spodoptera frugiperda (Sf-9) cells, baculovirus (pFastBac1)
T1 sequence (P09960 1-611): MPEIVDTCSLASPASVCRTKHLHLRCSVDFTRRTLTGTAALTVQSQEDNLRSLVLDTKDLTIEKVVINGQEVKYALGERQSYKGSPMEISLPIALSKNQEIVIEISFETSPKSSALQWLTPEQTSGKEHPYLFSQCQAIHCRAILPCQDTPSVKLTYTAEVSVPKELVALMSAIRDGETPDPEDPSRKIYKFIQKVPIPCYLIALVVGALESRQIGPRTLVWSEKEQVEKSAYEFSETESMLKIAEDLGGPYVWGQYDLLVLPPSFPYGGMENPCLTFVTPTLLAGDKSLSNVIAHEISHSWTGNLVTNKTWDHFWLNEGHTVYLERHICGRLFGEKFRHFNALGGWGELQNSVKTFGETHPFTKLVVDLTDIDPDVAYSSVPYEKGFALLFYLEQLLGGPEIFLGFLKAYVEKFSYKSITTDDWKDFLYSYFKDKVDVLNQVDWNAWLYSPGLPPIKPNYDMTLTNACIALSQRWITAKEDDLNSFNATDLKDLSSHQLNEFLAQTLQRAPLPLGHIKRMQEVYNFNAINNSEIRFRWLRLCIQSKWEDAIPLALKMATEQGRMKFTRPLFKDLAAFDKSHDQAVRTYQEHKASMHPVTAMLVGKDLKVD
Assay type: biochemical
Summary of the method: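 Baculovirus/Sf-9-expressed human LTA4H (10 ng) was preincubated 10 min at rt with compound in assay buffer (10% DMSO in compound dilution), then reacted 30 min at rt with LTA4 free acid made from its methyl ester. LTB4 produced was measured by ELISA after dilution; IC50 from non-linear regression, single or averaged determinations.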
`c1ccc2sc(Oc3ccc4c(CN5CCCC5)c[nH]c4c3)nc2c1` [Example 1, 2-(3-Pyrrolidin-1-ylmethyl-1H-indol-6-yloxy)-benzothiazole] gave an IC50 of 12 nM.
`c1ccc2sc(Oc3ccc4c(CN5CCCCC5)c[nH]c4c3)nc2c1` [Example 2, 2-(3-Piperidin-1-ylmethyl-1H-indol-6-yloxy)-benzothiazole] gave an IC50 of 19 nM.
In the case of `c1ccc2sc(Oc3ccc4c(CN5CCOCC5)c[nH]c4c3)nc2c1` [Example 3, 2-(3-Morpholin-4-ylmethyl-1H-indol-6-yloxy)-benzothiazole], the IC50 is reported as 16 nM.
`CS(=O)(=O)C1CCN(Cc2c[nH]c3cc(Oc4nc5ccccc5s4)ccc23)CC1` [Example 4, 2-[3-(4-Methanesulfonyl-piperidin-1-ylmethyl)-1H-indol-6-yloxy]-benzothiazole] gave an IC50 of 23 nM.
Molecule `CN(Cc1ccccc1)Cc1c[nH]c2cc(Oc3nc4ccccc4s3)ccc12` [Example 5, [6-(Benzothiazol-2-yloxy)-1H-indol-3-ylmethyl]-benzyl-methyl-amine] has an IC50 of 54 nM.
For `CCN(CC)Cc1cc2cc(Oc3nc4ncccc4s3)ccc2o1` [Example 329, Diethyl-[5-(thiazolo[4,5-b]pyridin-2-yloxy)-benzofuran-2-ylmethyl]-amine formate], the IC50 was 54 nM.
`CCOC(=O)CCN(C)Cc1coc2cc(Oc3nc4ncccc4s3)ccc12` [Example 334, 3-{Methyl-[6-(thiazolo[4,5-b]pyridin-2-yloxy)-benzofuran-3-ylmethyl]-amino}-propionic acid ethyl ester] showed an IC50 of 20 nM.
Work on `CC(=O)N[C@@H]1C[C@H]2CC[C@@H](C1)N2Cc1cc2ncc(Oc3nc4ncccc4s3)cc2o1` [Example 336, meso-exo-N-{8-[6-(Thiazolo[4,5-b]pyridin-2-yloxy)-furo[3,2-b]pyridin-2-ylmethyl]-8-aza-bicyclo[3.2.1]oct-3-yl}-acetamide] yielded an IC50 of 110 nM.
`NC(=O)N1C[C@@H]2C[C@H]1CN2Cc1cc2ncc(Oc3nc4ncccc4s3)cc2o1` [Example 337, (1S,4S)-5-[6-(Thiazolo[4,5-b]pyridin-2-yloxy)-furo[3,2-b]pyridin-2-ylmethyl]-2,5-diaza-bicyclo[2.2.1]heptane-2-carboxylic acid amide formate] showed an IC50 of 270 nM.
`CC(=O)N1C[C@H]2CC[C@@H](C1)N2Cc1cc2ncc(Oc3nc4ncccc4s3)cc2o1` [Example 338, meso-1-{8-[6-(Thiazolo[4,5-b]pyridin-2-yloxy)-furo[3,2-b]pyridin-2-ylmethyl]-3,8-diaza-bicyclo[3.2.1]oct-3-yl}-ethanone formate] was tested, and the IC50 was 450 nM.
`O=C1CCCN1C1CCN(Cc2cc3ncc(Oc4nc5ncccc5s4)cc3o2)CC1` [Example 341, 1-{1-[6-(Thiazolo[4,5-b]pyridin-2-yloxy)-furo[3,2-b]pyridin-2-ylmethyl]-piperidin-4-yl}-pyrrolidin-2-one] gave an IC50 of 470 nM.
In the case of `CC(=O)N1CCN(Cc2cc3ncc(Oc4nc5ncccc5s4)cc3o2)CC1` [Example 343, 1-{4-[6-(Thiazolo[4,5-b]pyridin-2-yloxy)-furo[3,2-b]pyridin-2-ylmethyl]-piperazin-1-yl}-ethanone formate], the IC50 is reported as 250 nM.
`COc1ccc(CNCc2coc3cc(Oc4nc5ncccc5s4)ccc23)cc1` [Example 346, (4-Methoxy-benzyl)-[6-(thiazolo[4,5-b]pyridin-2-yloxy)-benzofuran-3-ylmethyl]-amine] was tested, and the IC50 was 13 nM.
`CN(Cc1ccccc1)C(=O)c1cc2cc(Oc3nc4ncccc4s3)ccc2o1` [Example 365, 5-(Thiazolo[4,5-b]pyridin-2-yloxy)-benzofuran-2-carboxylic acid benzyl-methyl-amide] was tested, and the IC50 was 110 nM.
`CNC(=O)c1coc2cc(Oc3nc4ncccc4s3)ccc12` [Example 367, 6-(Thiazolo[4,5-b]pyridin-2-yloxy)-benzofuran-3-carboxylic acid methylamide] showed an IC50 of 160 nM.
In the case of `CCN(C(=O)c1coc2cc(Oc3nc4ncccc4s3)ccc12)C1CCCCC1` [Example 381, 6-(Thiazolo[4,5-b]pyridin-2-yloxy)-benzofuran-3-carboxylic acid cyclohexyl-ethyl-amide], the IC50 is reported as 110 nM.
`O=C(c1coc2cc(Oc3nc4ncccc4s3)ccc12)N1CCC2CCCCC2C1` (stereo not drawn) [Example 385, (Octahydro-isoquinolin-2-yl)-[6-(thiazolo[4,5-b]pyridin-2-yloxy)-benzofuran-3-yl]-methanone] gave an IC50 of 1530 nM.
With `O=C(c1coc2cc(Oc3nc4ncccc4s3)ccc12)N1CCc2ccccc2C1` [Example 386, (3,4-Dihydro-1H-isoquinolin-2-yl)-[6-(thiazolo[4,5-b]pyridin-2-yloxy)-benzofuran-3-yl]-methanone] the IC50 was 210 nM.
`O=C(c1ccccc1)C1CCN(C(=O)c2coc3cc(Oc4nc5ncccc5s4)ccc23)CC1` [Example 387, (4-Benzoyl-piperidin-1-yl)-[6-(thiazolo[4,5-b]pyridin-2-yloxy)-benzofuran-3-yl]-methanone] was tested, and the IC50 was 150 nM.
`CN(C)CCCN(C)C(=O)c1coc2cc(Oc3nc4ncccc4s3)ccc12` [Example 388, 6-(Thiazolo[4,5-b]pyridin-2-yloxy)-benzofuran-3-carboxylic acid (3-dimethylamino-propyl)-methyl-amide] was tested, and the IC50 was 150 nM.
Work on `COC(=O)c1ccc(C(=O)NCc2coc3cc(Oc4nc5ncccc5s4)ccc23)cc1` [Example 393, N-[6-(Thiazolo[4,5-b]pyridin-2-yloxy)-benzofuran-3-ylmethyl]-terephthalamic acid methyl ester] yielded an IC50 of 100 nM.
For `O=C(Cc1ccc(Cl)cc1)NCc1coc2cc(Oc3nc4ncccc4s3)ccc12` [Example 394, 2-(4-Chloro-phenyl)-N-[6-(thiazolo[4,5-b]pyridin-2-yloxy)-benzofuran-3-ylmethyl]-acetamide], the IC50 was 85 nM.
Work on `CC(=O)NCc1coc2cc(Oc3nc4ncccc4s3)ccc12` [Example 395, N-[6-(Thiazolo[4,5-b]pyridin-2-yloxy)-benzofuran-3-ylmethyl]-acetamide] yielded an IC50 of 85 nM.
`O=C(O)c1ccc(C(=O)NCc2coc3cc(Oc4nc5ncccc5s4)ccc23)cc1` [Example 396, N-[6-(Thiazolo[4,5-b]pyridin-2-yloxy)-benzofuran-3-ylmethyl]-terephthalamic acid] showed an IC50 of 52 nM.
For `O=C1Cc2ccc(C(F)(F)F)cc2N1Cc1coc2cc(Oc3nc4ncccc4s3)ccc12` [Example 398, 1-[6-(Thiazolo[4,5-b]pyridin-2-yloxy)-benzofuran-3-ylmethyl]-6-trifluoromethyl-1,3-dihydro-indol-2-one], the IC50 was 470 nM.
`O=C1Cc2cc(C(F)(F)F)ccc2N1Cc1coc2cc(Oc3nc4ncccc4s3)ccc12` [Example 400, 1-[6-(Thiazolo[4,5-b]pyridin-2-yloxy)-benzofuran-3-ylmethyl]-5-trifluoromethyl-1,3-dihydro-indol-2-one] showed an IC50 of 1120 nM.
Molecule `O=C1Cc2cc(Cl)ccc2N1Cc1coc2cc(Oc3nc4ncccc4s3)ccc12` [Example 401, 5-Chloro-1-[6-(thiazolo[4,5-b]pyridin-2-yloxy)-benzofuran-3-ylmethyl]-1,3-dihydro-indol-2-one] has an IC50 of 1020 nM.
For `CC(=O)N(Cc1coc2cc(Oc3nc4ncccc4s3)ccc12)[C@H]1CN2CCC1CC2` [Example 404, (R)—N-(1-Aza-bicyclo[2.2.2]oct-3-yl)-N-[6-(thiazolo[4,5-b]pyridin-2-yloxy)-benzofuran-3-ylmethyl]-acetamide formate], the IC50 was 2 nM.
For `c1ccc2sc(Oc3ccc4c(CN5CCCCC5)coc4c3)nc2c1` [Example 405, 2-(3-Piperidin-1-ylmethyl-benzofuran-6-yloxy)-benzothiazole], the IC50 was 77 nM.
Molecule `c1ccc2sc(Oc3ccc4cc(CN5CCCCC5)oc4c3)nc2c1` [Example 406, 2-(2-Piperidin-1-ylmethyl-benzofuran-6-yloxy)-benzothiazole] has an IC50 of 492 nM.

Each molecule was assayed on LTB4 production in murine blood (LTA4H) (assay: LTB4 production by calcium ionophore-stimulated murine blood for LTA4H inhibitor activity). Conditions: Mus musculus; murine blood diluted 1 in 15, A23187 stimulated; single determination or average; mark after value = form tested: ′ free base, ″ hydrochloride, ^ formate; read-out: IC50.
Assay type: cell-based, CD-1 mice
Description: Assay 2: LTB4 Production by Calcium Ionophore-Stimulated Murine Blood for LTA4H Inhibitor Activity
CD-1 mice were sacrificed, and blood was collected in heparin-containing syringes by cardiac puncture. […] After the microtiter plate contents were incubated for 15 min at 37° C. in a humidified incubator, calcium ionophore A23187 (Sigma Chemical Co., St. Louis, Mo.) was added to each sample well (final concentration=7 μg/mL). The incubation was continued under the same conditions for an additional 30 min to allow LTB4 formation. The reaction was terminated by centrifugation (833×g, 10 min at 4° C.), and supernatants were analyzed for LTB4 by a commercially available enzyme-linked immunoassay (Cayman Chemical Co.) according to the manufacturer's instructions. Positive controls, under essentially identical conditions but without addition of an inhibitor compound, and negative unstimulated controls, containing all assay components except calcium ionophore, were routinely run in each experiment. […] The values presented here are the result of a single determination or an average of two or more determinations.
Work on `c1ccc2sc(Oc3ccc4c(CN5CCCC5)c[nH]c4c3)nc2c1` [Example 1, 2-(3-Pyrrolidin-1-ylmethyl-1H-indol-6-yloxy)-benzothiazole] yielded an IC50 of 68 nM.
With `c1ccc2sc(Oc3ccc4c(CN5CCCCC5)c[nH]c4c3)nc2c1` [Example 2, 2-(3-Piperidin-1-ylmethyl-1H-indol-6-yloxy)-benzothiazole] the IC50 was 78 nM.
`c1ccc2sc(Oc3ccc4c(CN5CCOCC5)c[nH]c4c3)nc2c1` [Example 3, 2-(3-Morpholin-4-ylmethyl-1H-indol-6-yloxy)-benzothiazole] was tested, and the IC50 was 303 nM.
`CS(=O)(=O)C1CCN(Cc2c[nH]c3cc(Oc4nc5ccccc5s4)ccc23)CC1` [Example 4, 2-[3-(4-Methanesulfonyl-piperidin-1-ylmethyl)-1H-indol-6-yloxy]-benzothiazole] was tested, and the IC50 was 190 nM.
`CN(Cc1ccccc1)Cc1c[nH]c2cc(Oc3nc4ccccc4s3)ccc12` [Example 5, [6-(Benzothiazol-2-yloxy)-1H-indol-3-ylmethyl]-benzyl-methyl-amine] was tested, and the IC50 was 901 nM.
`CC(=O)N[C@H]1C[C@H]2CC[C@@H](C1)N2Cc1c[nH]c2cc(Oc3nc4c(F)cccc4s3)ccc12` [Example 14, meso-endo-N-{8-[6-(4-Fluoro-benzothiazol-2-yloxy)-1H-indol-3-ylmethyl]-8-aza-bicyclo[3.2.1]oct-3-yl}-acetamide] was tested, and the IC50 was 66 nM.
